According to patent US20120088803A1, “CONTROL AGENT FOR SOFT ROT AND CONTROL METHOD FOR THE SAME” (Ishihara Sangyo Kaisha, Ltd, priority 2009, published 2012):

Tested on: Erwinia carotovora (potato Erwinia carotovora)
Experiment: Test for growth inhibition of potato Erwinia carotovora (PSA medium plate)
Format: cell-based
Settings: for Growing state of Erwinia carotovora (formed colonies): PSA medium, 25 degrees C., 4 days, two plates per cell
Experimental: Reference test example: Test for growth inhibition of potato Erwinia carotovora
A test for growth inhibition of Erwinia carotovora in the case of direct application of the control agent to Erwinia carotovora was performed. To previously melted PSA medium (55 degrees C.), a predetermined amount of a pesticide 3-chloro-N-(3-chloro-5-trifluoromethyl-2-pyridyl)-alpha,alpha,alpha-trifluoro-2,6-dinit ro-p-toluidine (fluazinam, Frowncide SC (trade name), manufactured by Ishihara Sangyo Kaisha, Ltd.), ethaboxam wettable powder (Ethaboxam, Gardian (trade name), manufactured by LG Chemical), or streptomycin (Mycin wettable powder (trade name), manufactured by Hokko Chemical Industry Co., Ltd.) and a suspension of Erwinia carotovora (potato Erwinia carotovora) were added and the resulting mixture was stirred well, and then, poured in a plate. Then, the plate was cultured at 25 degrees C. for 4 days, and the growing state of Erwinia carotovora was examined. Thereafter, the formed colonies were examined according to the following three criteria. • +: Equal to the colonies of the untreated group • Plus or minus: Apparently less than the colonies of the untreated group • −: Almost no colonies

Structure (SMILES): CCNc1nc(CC)c(C(=O)NC(C#N)c2cccs2)s1 (stereo not shown) [Ethaboxam WP, ethaboxam]
- Growing state of Erwinia carotovora (formed colonies) (Active ingredient concentration 100 ppm): +, +
- Growing state of Erwinia carotovora (formed colonies) (Active ingredient concentration 500 ppm): +, +
- Growing state of Erwinia carotovora (formed colonies) (Active ingredient concentration 1000 ppm): +, +
- Growth inhibition of Erwinia carotovora (in words) (active ingredient concentration of 1000 ppm, direct application): did not inhibit the growth
